Where two headings read alike, the source gives them in different places.
Experiments:
E. coli Proteinase In = biological target: T1, E. coli Proteinase In (Escherichia coli, UniProt P27298); assay: Inhibition of purified E. coli proteinase In (fluorogenic substrate Boc-Val-Pro-Arg-NH-Mec); assay type: biochemical
T1 construct: We detected a single activity and had purified it to homogeneity; made in house; host or cells: endogenous enzyme purified from E. coli extracts (not recombinant)
Excerpt: Since the GMCHA derivatives were originally identified as synthetic trypsin inhibitors in vitro, we investigated whether a trypsin-like protease could be detected in E. coli extracts using as fluorogenic substrate Boc-Val-Pro-Arg-NH-Mec. (Kato et al., Eur. J. Biochem., 210:1007-1014 (1992)). We detected a single activity and had purified it to homogeneity. […] The purified enzyme has a molecular mass of ˜66 kDa and an isoelectric point of 4.9. Based upon pH optimum, hydrolytic activity on various synthetic substrates, and effects of various known proteolytic inhibitors, this E. coli protease has very different specificity than mammalian trypsin or any of known bacterial enzymes. Most exciting is the finding that the sensitivity of the purified enzyme to various GMCHA derivatives paralleled exactly their inhibitory effects on E. coli (Table 1). […] (Kato et al., Biol.Pharm. Bull., 16:552-557 (1993)). […]. […] We named this enzyme proteinase In, and its gene was identical with prlC. The prlC gene encoded a 67 kDa protein with two active sites for proteinase In and oligopeptidase A. (Jiang et al., J. Biochem., 124:980-985 (1998)). […] (Irisawa et al., Biol. Pharm. Bull., 16:1211-1215 (1993)).

S. epidermidis = assay: Effects of aromatic esters of GMCHA on growth of S. epidermidis; assay type: cell-based
E. coli = assay: Effects of GMCHA derivatives on E. coli growth; assay type: cell-based; conditions: for IC50: Escherichia coli; for E. coli IC91 / E. coli IC100: growth, Table 2
S. aureus = assay: Effects of aromatic esters of GMCHA on growth of S. aureus; assay type: cell-based; conditions: for IC20: Staphylococcus aureus, read-out: S. aureus IC20; for S. aureus IC100: growth
B. subtilis = assay: Effects of aromatic esters of GMCHA on growth of B. subtilis; assay type: cell-based; conditions: for IC50: Bacillus subtilis
[1] = system: synchronized E. coli cells; assay type: cell-based
H. pylori [2] = assay: MIC against 9 strains of H. pylori; assay type: cell-based; conditions: 9 ATCC strains of H. pylori
Protocol: MICs (μg/ml) of several substances against 9 strains (ATCC43504, ATCC43629, ATCC43526,ATCC43579,ATCC49503,ATCC51110,ATCC51652,ATCC51653, ATCC51932) of H. pylori were examined. NE-2001 had minimal inhibitory concentrations (MICs) ranging from 0.10 to 0.48 μg/ml.

H. pylori [3] = assay: Bactericidal effect against H. pylori (time course, various concentrations and pH); assay type: cell-based; conditions: concentration ≧1.25 μg/ml
Protocol: FIG. 2 illustrates the anti-H. pylori effects of the compound NE-2001. Bactericidal effect was examined at various concentration (0.15-2.50 μg/ml) for 168 hours. […] No visible organism was detected in 3 hr at a concentration of ≧1.25 μg/ml.

H. pylori ATCC43504 = assay: Appearance frequency of natural resistant mutation; assay type: cell-based
Excerpt: FIG. 3. Illustrates the anti-H. pylori effects of the compound NE-2001 at various pH values. The appearance frequency of natural resistant mutations against NE-2001 was examined (Table 4).

[4] = Single dose toxicity in mice; assay type: in vivo
[5] = read-out: E. coli Proteinase In IC50

T1 sequence (P27298 whole entry): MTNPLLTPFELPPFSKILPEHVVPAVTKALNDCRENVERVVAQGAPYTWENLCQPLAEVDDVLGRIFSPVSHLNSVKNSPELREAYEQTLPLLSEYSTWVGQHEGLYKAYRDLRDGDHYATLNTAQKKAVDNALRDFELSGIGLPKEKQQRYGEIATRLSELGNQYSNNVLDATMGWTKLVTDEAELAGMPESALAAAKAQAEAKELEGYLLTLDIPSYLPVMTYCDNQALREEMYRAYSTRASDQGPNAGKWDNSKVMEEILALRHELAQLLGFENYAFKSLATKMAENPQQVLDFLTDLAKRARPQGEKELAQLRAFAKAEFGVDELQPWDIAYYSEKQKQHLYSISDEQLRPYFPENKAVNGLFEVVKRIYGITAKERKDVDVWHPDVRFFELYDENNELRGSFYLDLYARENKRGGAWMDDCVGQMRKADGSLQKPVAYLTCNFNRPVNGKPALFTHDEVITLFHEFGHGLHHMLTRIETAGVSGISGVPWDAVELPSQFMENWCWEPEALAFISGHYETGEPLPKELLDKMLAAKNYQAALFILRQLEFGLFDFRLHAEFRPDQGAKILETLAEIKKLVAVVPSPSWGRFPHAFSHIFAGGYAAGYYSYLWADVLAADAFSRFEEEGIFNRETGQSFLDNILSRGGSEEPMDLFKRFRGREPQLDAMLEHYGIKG

| MIC Range (H. pylori [2]) [mg/L] | SMILES | IC50 (E. coli Proteinase In) [µM] | S. epidermidis IC91 (S. epidermidis) | S. epidermidis IC100 (S. epidermidis) [µM] | IC50 (E. coli) [µM] | E. coli IC91 (E. coli) | E. coli IC100 (E. coli) [µM] | IC20 (S. aureus) [µM] | S. aureus IC100 (S. aureus) [µM] | B. subtilis IC100 (B. subtilis) [µM] | IC50 (B. subtilis) [µM] | also measured |
| --- | --- | --- | --- | --- | --- | --- | --- | --- | --- | --- | --- | --- |
| – | CC(C)(C)c1ccc(OC(=O)C2CCC(CNC(=N)N)CC2)cc1 (centres unmarked) [PH04] | 38 | 2.9 | 10 | 45 | 45 | 90 | 3.4 | 15 | 50 | 26 | duration of R1 period [1]: 35 min; time at which DNA synthetic activity doubled [1]: 65 min; time of initiation of DNA synthesis [1]: 30 min |
| – | N=C(N)NCC1CCC(C(=O)Oc2c(Cl)cc(Cl)cc2Cl)CC1 (centres unmarked) [PH06] | 35 | – | – | 44 | – | – | – | – | – | – | – |
| – | CCc1ccc(OC(=O)C2CCC(CNC(=N)N)CC2)cc1 (centres unmarked) [PH03] | – | 14 | 50 | 167 | 167 | > 200 | 15 | 50 | > 200 | 129 | IC50 (E. coli Proteinase In; [5]): > 200 µM |
| – | Cc1ccc(OC(=O)C2CCC(CNC(=N)N)CC2)cc1 (centres unmarked) [PH02] | – | 48 | 120 | > 200 | >200 | > 200 | 47 | 120 | > 200 | > 200 | IC50 (E. coli Proteinase In; [5]): > 200 µM |
| – | N=C(N)NCC1CCC(C(=O)Oc2ccccc2-c2ccccc2)CC1 (centres unmarked) [BP02] | 83 | – | – | 74 | – | – | – | – | – | – | – |
| – | N=C(N)NCC1CCC(C(=O)Oc2ccccc2)CC1 (centres unmarked) [PH01] | – | 128 | > 200 | > 200 | >200 | > 200 | 151 | > 200 | > 200 | > 200 | IC50 (E. coli Proteinase In; [5]): > 200 µM |
| – | N=C(N)NCC1CCC(C(=O)Oc2ccc(Cl)cc2Cl)CC1 (centres unmarked) [PH05] | 62 | – | – | 92 | – | – | – | – | – | – | – |
| – | N=C(N)NCC1CCC(C(=O)Oc2ccc(-c3ccccc3)cc2)CC1 (centres unmarked) [BP01] | 17 | 0.4 | 1.5 | 26 | 26 | 40 | 0.6 | 2 | 10 | 4 | – |
| 0.01 to 0.08 | CC1(C)S[C@@H]2[C@H](NC(=O)[C@H](N)c3ccc(O)cc3)C(=O)N2[C@H]1C(=O)O [Amoxicillin] | – | – | – | – | – | – | – | – | – | – | – |
| 0.65 to 2.45 | Cc1ncc([N+](=O)[O-])n1CCO [Metronidazole] | – | – | – | – | – | – | – | – | – | – | – |
| 0.01 to 0.90 | CC[C@H]1OC(=O)[C@H](C)[C@@H](O[C@H]2C[C@@](C)(OC)[C@@H](O)[C@H](C)O2)[C@H](C)[C@@H](O[C@@H]2O[C@H](C)C[C@H](N(C)C)[C@H]2O)[C@](C)(OC)C[C@@H](C)C(=O)[C@H](C)[C@@H](O)[C@]1(C)O [Clarithromycin] | – | – | – | – | – | – | – | – | – | – | – |

| SMILES | MIC Range (H. pylori [2]) [mg/L] | IC50 (E. coli Proteinase In) [µM] | S. epidermidis IC91 (S. epidermidis) | S. epidermidis IC100 (S. epidermidis) [µM] | IC50 (E. coli) [µM] | E. coli IC91 (E. coli) | E. coli IC100 (E. coli) [µM] | IC20 (S. aureus) [µM] | S. aureus IC100 (S. aureus) [µM] | B. subtilis IC100 (B. subtilis) [µM] | IC50 (B. subtilis) [µM] | also measured |
| --- | --- | --- | --- | --- | --- | --- | --- | --- | --- | --- | --- | --- |
| Cc1ccc(COC(=O)c2ccc(-c3ccc(OC(=O)c4ccc(CNC(=N)N)cc4)cc3)cc2)cc1 [NE-2001, 4-(4-methylbenzyl)-4′-[guanidinomethylbenzoyloxy] biphenyl-4-carboxylate] | 0.10 to 0.48 | – | – | – | – | – | – | – | – | – | – | time at which no visible organism was detected (H. pylori [3]): 3 h; Frequency of natural resistant mutation (H. pylori ATCC43504; selected concentration of NE-2001 0.30 μg/ml): <3.4 × 10^−8; Frequency of natural resistant mutation (H. pylori ATCC43504; selected concentration of NE-2001 0.60 μg/ml): <3.4 × 10^−8; Frequency of natural resistant mutation (H. pylori ATCC43504; selected concentration of NE-2001 1.20 μg/ml): <3.4 × 10^−8; LD50 ([4]; mouse, in vivo, 2000 mg/kg, oral, single dose, male mice, 6 weeks): > 2000 mg/kg; animal deaths ([4]; mouse, in vivo, po, 2000 mg/kg): no animal deaths occurred; body weight ([4]; mouse, in vivo, po, 2000 mg/kg): all animals gained weight; general toxicity ([4]; oral 2000 mg/kg, male mice): observed in neither cases |
